Laboratory results taken from patent EP4596546A1, “SULFONAMIDE COMPOUND, AND HARMFUL-ARTHROPOD EXTERMINATION COMPOSITION CONTAINING SAME” (priority 2022, dated 2024).

Experiments:
Assay type in all cases: in vivo
[1] = system: cotton worm (Spodoptera litura); assay: Test Method 9: sprayed cabbage seedling, third-instar larvae of cotton worm (formulation per Formulation Example 5); conditions: 144 h, spray 20 mL/seedling, after 6 days
Experimental: (§1) Next, Test Examples are used to show effects of the Present compounds on harmful arthropods. In the following Test Examples, the tests were carried out at 25°C.
(§2) Each test compound is made to a formulation according to a similar method to that described in the Formulation Example 5, and thereto is added water containing 0.03 v/v% of Shindain (registered trademark) to prepare a diluted solution containing a prescribed concentration of the test compound.
(§3) Cabbage (Brassicae oleracea) seedling (on the developmental stage of the third to fourth true leaf) is planted in a container, and the diluted solutions are sprayed to the seedling at a ratio of 20 mL/seedling. Thereafter, ten of third-instar larvae of cotton worm (Spodoptera litura) are released. After 6 days, the number of the surviving insects is counted, and the mortality of insects is calculated by the following equation. [formula]

[2] = system: cotton worm (Spodoptera litura); assay: Test Method 3: sprayed cabbage, cut aerial part, second-instar larvae of cotton worm; conditions: 120 h, spray 20 mL/seedling, after 5 days
Experimental: (§4) Next, Test Examples are used to show effects of the Present compounds on harmful arthropods. In the following Test Examples, the tests were carried out at 25°C. Each test compound is made to a formulation according to a similar method to that described in the Formulation Example 1, and thereto is added water containing 0.03 v/v% of Shindain (registered trademark) to prepare a diluted solution containing a prescribed concentration of the test compound. Cabbage (Brassicae oleracea) seedling (on the developmental stage of the second to third true leaf) is planted in a container, and the diluted solutions are sprayed to the seedling at a ratio of 20 mL/seedling. Thereafter, the aerial part of the seedling is cut out and then is installed into a container in which a filter paper is placed at the bottom of the container. Five of second-instar larvae of cotton worm (Spodoptera litura) are released into the container. After 5 days, the number of the surviving insects is counted, and the mortality of insects is calculated by the following equation. [formula]

[3] = system: Western corn rootworm (Diabrotica virgifera virgifera); assay: whole plant or invertebrate; conditions: 120 h
Experimental: as §1
Each 1 mg of the test compounds is dissolved in 50 µL of a mixed solution consisting of 5% of polyoxyethylene sorbitan mono-cocoate and 95% of acetone by volume ratio. Thereto is added water containing 0.03% by volume of Shindain (registered trademark) to prepare a diluted solution containing a prescribed concentration of the test compound.
A young seedling of corn (Zea mays) is immersed into the diluted solution for 30 seconds. Thereafter, two seedlings are installed in a plastic petri dish (90 mm […]), and 10 of second-instar larvae of Western corn rootworm (Diabrotica virgifera virgifera) are released into the dish. After 5 days, the number of the dead insects is counted, and the mortality of insects is calculated by the following equation. Mortality (%) = (Numberofdeadinsects/10) × 100 [formula]

[4] = system: diamondback moth (Plutella xylostella); assay: Test Method 4: sprayed cabbage, cut aerial part, second-instar larvae of diamondback moth; conditions: 120 h, spray 20 mL/seedling, after 5 days
Experimental: as §4, with “diamondback moth (Plutella xylostella)” for “cotton worm (Spodoptera litura)”

[5] = system: diamondback moth (Plutella xylostella); assay: Test Method 10: sprayed cabbage seedling, third-instar larvae of diamondback moth (formulation per Formulation Example 5); conditions: 120 h, spray 20 mL/seedling, after 5 days
Experimental: as §1, §2
as §3, with “diamondback moth (Plutella xylostella)” for “cotton worm (Spodoptera litura)”, “5” for “6”

[6] = system: common house mosquito (Culex pipiens pallens); assay: Test Method 12: last instar larvae of common house mosquito released into diluted solution; conditions: 24 h, after 1 day
Experimental: as §1
Each test compound is formulated to a test formulation according to a similar method to that described in the Formulation Example 1, and water is added in preparing for a diluted solution containing a prescribed concentration of the test compound.
Into the diluted solution, 30 last instar larvae of common house mosquito (Culex pipiens pallens) are released, and after 1 day, the state of the house mosquito larvae is examined, and the mortality is calculated by the following equation. [formula]

[7] = system: housefly (Musca domestica); assay: Test Method 8: coated glass vial contact test, housefly female adults; conditions: 24 h, 40 mg/m^2 on vial inner face, 1 day
Experimental: as §1
An acetone solution which is adjusted to 800 ppm of each test compound is poured into a 20 mL glass vial, and the test compound is coated uniformly on inner face of the vial so as to 40 mg/m^2 of the test compound treated, and the vial is then dried.
5 housefly (Musca domestica) female adults are released into the treated vial, and the vial is then covered with lid. After the prescribed time, the state of the housefly is examined, and the mortality is calculated by the following equation. [formula]

[8] = system: German cockroach (Blattella germanica); assay: Test Method 6: coated glass vial contact test, German cockroach male adults; conditions: 72 h, 40 mg/m^2 on vial inner face, 3 days
Experimental: as §1
An acetone solution which is adjusted to 800 ppm of each test compound is poured into a 50 mL glass vial, and the test compound is coated uniformly on inner face of the vial so as to 40 mg/m^2 of the test compound treated, and the vial is then dried.
5 German cockroach (Blattella germanica) male adults are released into the treated vial, and the vial is then covered with lid. After the prescribed time, the state of the German cockroach is examined, and the mortality is calculated by the following equation. [formula]

[9] = system: Haemaphysalis longicornis; assay: Test Method 7: coated glass vial contact test, Haemaphysalis longicornis nymphs; conditions: 48 h, 100 mg/m^2 on vial inner face, 2 days
Experimental: An acetone solution which is adjusted to 2000 ppm of each test compound is poured into a 20 mL glass vial, and the test compound is coated uniformly on inner face of the vial so as to 100 mg/m^2 of the test compound treated, and the vial is then dried.
5 Haemaphysalis longicornis nymphs are released into the treated vial, and the vial is then covered with lid. After the prescribed time, the state of the Haemaphysalis longicornis is examined, and the mortality is calculated by the following equation.

| Compound | mortality at 200 ppm [1] [%] | mortality at 500 ppm [2] [%] | mortality at 200 ppm [3] [%] | mortality at 500 ppm [4] [%] | mortality at 50 ppm [5] [%] | mortality at 200 ppm [5] [%] | mortality at 3.5 ppm [6] [%] | mortality at 40 mg/m2, 40 mg/m2 [7] [%] | mortality at 40 mg/m2, 40 mg/m2 [8] [%] | mortality at 100 mg/m2, 100 mg/m2 [9] [%] |
| --- | --- | --- | --- | --- | --- | --- | --- | --- | --- | --- |
| Cn1c(OCC(F)(F)C(F)(F)F)ncc(-c2nc3ccc(Br)cn3c2S(N)(=O)=O)c1=O [compound 6] | ≥ 80 | ≥ 80 | ≥ 80 | ≥ 80 | ≥ 80 | ≥ 80 | – | – | – | – |
| CNS(=O)(=O)c1c(-c2cnc(OCC(F)(F)C(F)(F)F)n(C)c2=O)nc2ccc(C(F)(F)F)cn12 [compound 9] | ≥ 80 | ≥ 80 | ≥ 80 | ≥ 80 | ≥ 80 | ≥ 80 | > 90 | – | – | – |
| CCNS(=O)(=O)c1c(-c2ccc(OCC(F)(F)C(F)(F)F)n(C)c2=O)nc2ccc(Br)cn12 [compound 2] | ≥ 80 | ≥ 80 | ≥ 80 | ≥ 80 | ≥ 80 | ≥ 80 | – | – | – | – |
| CNS(=O)(=O)c1c(-n2cnc3ccc(OC(F)(F)F)cc3c2=O)nc2ccc(I)cn12 [compound 12] | ≥ 80 | ≥ 80 | ≥ 80 | ≥ 80 | ≥ 80 | ≥ 80 | – | – | – | – |
| CNS(=O)(=O)c1c(-c2ccc(OCC(F)(F)C(F)(F)F)n(C)c2=O)nc2ccc(C(F)(F)F)cn12 [compound 1] | ≥ 80 | ≥ 80 | – | ≥ 80 | ≥ 80 | ≥ 80 | > 90 | ≥ 80 | – | – |
| CNS(=O)(=O)c1c(-c2cnc(OCC(F)(F)C(F)(F)F)n(C)c2=O)nc2cc(C(F)(F)F)ccn12 [compound 10] | ≥ 80 | ≥ 80 | ≥ 80 | ≥ 80 | ≥ 80 | ≥ 80 | > 90 | ≥ 80 | ≥ 80 | – |
| CNS(=O)(=O)c1c(-c2cnc(OCC(F)(F)C(F)(F)F)n(C)c2=O)nc2ccc(I)cn12 [compound 7] | ≥ 80 | ≥ 80 | ≥ 80 | ≥ 80 | ≥ 80 | ≥ 80 | > 90 | ≥ 80 | – | – |
| CNS(=O)(=O)c1c(-c2ccc(OCC(F)(F)C(F)(F)F)n(C)c2=O)nc2ccc(I)cn12 [compound 4] | ≥ 80 | ≥ 80 | ≥ 80 | ≥ 80 | ≥ 80 | ≥ 80 | > 90 | ≥ 80 | – | ≥ 80 |
| CN(C)S(=O)(=O)c1c(-n2cnc3ccc(OC(F)(F)F)cc3c2=O)nc2ccc(I)cn12 [compound 11] | ≥ 80 | ≥ 80 | ≥ 80 | ≥ 80 | ≥ 80 | ≥ 80 | – | – | – | – |
| CN(C)S(=O)(=O)c1c(-c2ccc(OCC(F)(F)C(F)(F)F)n(C)c2=O)nc2ccc(Br)cn12 [compound 3] | ≥ 80 | ≥ 80 | ≥ 80 | ≥ 80 | ≥ 80 | ≥ 80 | – | – | – | – |
| Cn1c(OCC(F)(F)C(F)(F)F)ncc(-c2nc3ccc(Br)cn3c2S(=O)(=O)NC2CC2)c1=O [compound 5] | ≥ 80 | ≥ 80 | – | ≥ 80 | ≥ 80 | ≥ 80 | > 90 | ≥ 80 | ≥ 80 | – |
| CNS(=O)(=O)c1c(-c2cnc(OCC(F)(F)C(F)(F)F)n(C)c2=O)nc2cc(I)ccn12 [compound 8] | ≥ 80 | ≥ 80 | ≥ 80 | ≥ 80 | ≥ 80 | ≥ 80 | > 90 | ≥ 80 | ≥ 80 | – |
